Laboratory results reported in the supplement of paper PMC4932681.

What was measured:
[1] = tested on: BT-474 Tam1; test: drug sensitivity score (DSS) (DSS (dimensionless)); higher = more sensitive; extreme values may be limits of the assay; conditions: 4-OH-tamoxifen in medium 1 µM; 72 h
Summary of the method: (§1)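 Breast cancer cell lines and their resistant derivatives were seeded into 384-well plates containing library drugs at five concentrations across a 10 000-fold range, with resistant lines kept in medium with 1 μM of the selecting drug. After 72 h at 37 °C, CellTiter-Glo viability was read on a PHERAstar and normalised to vehicle-only and positive controls. Logistic dose–response fits in the Breeze pipeline gave drug sensitivity score, relative IC50 (curve midpoint) and top-dose inhibition.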

[2] = tested on: BT-474 Tam2; test: as above; conditions: 4-OH-tamoxifen in medium 1 µM; 72 h
Summary of the method: as §1

[3] = tested on: BT-474; test: as above; conditions: 72 h
Summary of the method: as §1

[4] = tested on: MCF-7 Tam1; test: as above; conditions: 4-OH-tamoxifen in medium 1 µM; 72 h
Summary of the method: as §1

[5] = tested on: MCF-7; test: as above; conditions: 72 h
Summary of the method: as §1

[6] = tested on: T-47D Tam1; test: as above; conditions: 4-OH-tamoxifen in medium 1 µM; 72 h
Summary of the method: as §1

[7] = tested on: T-47D Tam2; test: as above; conditions: 4-OH-tamoxifen in medium 1 µM; 72 h
Summary of the method: as §1

[8] = tested on: T-47D; test: as above; conditions: 72 h
Summary of the method: as §1

[9] = tested on: ZR-75-1 Tam1; test: as above; conditions: 4-OH-tamoxifen in medium 1 µM; 72 h
Summary of the method: as §1

[10] = tested on: ZR-75-1 Tam2; test: as above; conditions: 4-OH-tamoxifen in medium 1 µM; 72 h
Summary of the method: as §1

[11] = tested on: ZR-75-1; test: as above; conditions: 72 h
Summary of the method: as §1

[12] = tested on: BT-474 Tam1; test: relative IC50 (midpoint of fitted logistic curve, plateau may be below 50% inhibition; CellTiter-Glo viability); higher = less potent; conditions: 4-OH-tamoxifen in medium 1 µM; 72 h
Summary of the method: as §1

[13] = tested on: BT-474 Tam2; test: as above; conditions: 4-OH-tamoxifen in medium 1 µM; 72 h
Summary of the method: as §1

[14] = tested on: BT-474; test: as above; conditions: 72 h
Summary of the method: as §1

[15] = tested on: MCF-7 Tam1; test: as above; conditions: 4-OH-tamoxifen in medium 1 µM; 72 h
Summary of the method: as §1

[16] = tested on: MCF-7; test: as above; conditions: 72 h
Summary of the method: as §1

[17] = tested on: T-47D Tam2; test: as above; conditions: 4-OH-tamoxifen in medium 1 µM; 72 h
Summary of the method: as §1

[18] = tested on: T-47D; test: as above; conditions: 72 h
Summary of the method: as §1

[19] = tested on: ZR-75-1 Tam1; test: as above; conditions: 4-OH-tamoxifen in medium 1 µM; 72 h
Summary of the method: as §1

[20] = tested on: ZR-75-1 Tam2; test: as above; conditions: 4-OH-tamoxifen in medium 1 µM; 72 h
Summary of the method: as §1

[21] = tested on: ZR-75-1; test: as above; conditions: 72 h
Summary of the method: as §1

| Compound | drug sensitivity score [1] | drug sensitivity score [2] | drug sensitivity score ([3]; 4-OH-tamoxifen in medium 0 µM) | drug sensitivity score ([3]; 4-OH-tamoxifen in medium 1 µM) | drug sensitivity score [4] | drug sensitivity score ([5]; 4-OH-tamoxifen in medium 0 µM) | drug sensitivity score ([5]; 4-OH-tamoxifen in medium 1 µM) | drug sensitivity score [6] | drug sensitivity score [7] | drug sensitivity score ([8]; 4-OH-tamoxifen in medium 0 µM) | drug sensitivity score ([8]; 4-OH-tamoxifen in medium 1 µM) | drug sensitivity score [9] | drug sensitivity score [10] | drug sensitivity score ([11]; 4-OH-tamoxifen in medium 0 µM) | drug sensitivity score ([11]; 4-OH-tamoxifen in medium 1 µM) | relative IC50 [12] [nM] | relative IC50 [13] [nM] | relative IC50 ([14]; 4-OH-tamoxifen in medium 0 µM) [nM] | relative IC50 ([14]; 4-OH-tamoxifen in medium 1 µM) [nM] | relative IC50 [15] [µM] | relative IC50 ([16]; 4-OH-tamoxifen in medium 0 µM) [µM] | relative IC50 [17] [nM] | relative IC50 ([18]; 4-OH-tamoxifen in medium 0 µM) [nM] | relative IC50 ([18]; 4-OH-tamoxifen in medium 1 µM) [nM] | relative IC50 [19] [nM] | relative IC50 [20] [nM] | relative IC50 ([21]; 4-OH-tamoxifen in medium 0 µM) [nM] | relative IC50 ([21]; 4-OH-tamoxifen in medium 1 µM) [nM] | relative IC50 ([16]; 4-OH-tamoxifen in medium 1 µM) [µM] |
| --- | --- | --- | --- | --- | --- | --- | --- | --- | --- | --- | --- | --- | --- | --- | --- | --- | --- | --- | --- | --- | --- | --- | --- | --- | --- | --- | --- | --- | --- |
| Nc1nc(F)nc2c1ncn2[C@@H]1O[C@H](CO)[C@@H](O)[C@@H]1O [Fludarabine] | 0 | 0 | 0 | 0 | 0 | 0 | 1.23 | 2.13 | 0 | 0 | 0 | 0 | 0 | 0 | 0 | > 10000 | > 10000 | > 10000 | > 10000 | > 10 | > 10 | > 10000 | > 10000 | > 10000 | > 10000 | > 10000 | > 10000 | > 10000 |  |
| CC[C@H](Nc1ncnc2[nH]cnc12)c1nc2cccc(F)c2c(=O)n1-c1ccccc1 [CAL-101] | 0 | 0 | 0 | 0.147 | 0 | 2.04 | 0.584 | 0.811 | 2.66 | 0.0938 | 0.0607 | 4.88 | 5.82 | 4.36 | 4.39 | > 10000 | > 10000 | > 10000 |  | > 10 |  | 1710 |  |  | 1140 | 1330 | 1210 | 1210 |  |
| CCN1CCN(c2ccc(Nc3cc(N(C)C(=O)Nc4c(Cl)c(OC)cc(OC)c4Cl)ncn3)cc2)CC1 [NVP-BGJ398] | 6.97 | 0 | 0 | 0 | 0 | 0 | 0 | 1.07 | 0 | 0 | 0 | 0 | 0 | 0 | 0 |  | > 1000 | > 1000 | > 1000 | > 1 | > 1 | > 1000 | > 1000 | > 1000 | > 1000 | > 1000 | > 1000 | > 1000 | > 1 |
| C/C(=C\c1csc(C)n1)[C@@H]1C[C@@H]2O[C@]2(C)CCC[C@H](C)[C@H](O)[C@@H](C)C(=O)C(C)(C)[C@@H](O)CC(=O)N1 [Ixabepilone] | 0 | 0 | 0 | 1.39 | 0 | 0.882 | 1 | 0.349 | 2.1 | 1.7 | 0.538 | 0 | 0 | 0 | 0 | > 1000 | > 1000 | > 1000 | 436 | > 1 |  | 229 | 415 |  | > 1000 | > 1000 | > 1000 | > 1000 |  |
| C/C(=C\c1csc(C)n1)[C@@H]1C[C@@H]2O[C@]2(C)CCC[C@H](C)[C@H](O)[C@@H](C)C(=O)C(C)(C)[C@@H](O)CC(=O)O1 [Patupilone  (Epothilone B)] | 8.19 | 5.53 | 9.82 | 14.9 | 0 | 7.85 | 4.38 | 4.63 | 6.29 | 8.94 | 1.35 | 0 | 0 | 4.4 | 0 | 11.8 | 29.7 | 20.1 | 5.98 | > 1 |  | 14.7 | 9.51 | 242 | > 1000 | > 1000 |  | > 1000 |  |
| CN1CCN(c2nc(C3=C(c4c[nH]c5ccccc45)C(=O)NC3=O)c3ccccc3n2)CC1 [Sotrastaurin] | 6.13 | 1.44 | 0 | 10.6 | 0 | 0.517 | 0 | 0 | 0 | 0 | 0 | 0 | 0 | 0 | 0 | 1540 |  | > 10000 | 51.5 | > 10 |  | > 10000 | > 10000 | > 10000 | > 10000 | > 10000 | > 10000 | > 10000 |  |
| N#Cc1ccc(C(c2ccc(C#N)cc2)n2cncn2)cc1 [Letrozole] | 0 | 0 | 0 | 0 | 0 | 0 | 0 | 2.88 | 0 | 0 | 11.1 | 0 | 0 | 0 | 0 | > 10000 | > 10000 | > 10000 | > 10000 | > 10 | > 10 | > 10000 | > 10000 |  | > 10000 | > 10000 | > 10000 | > 10000 | > 10 |
